BindingDB's records for doi:10.1021/jm501113m (Duquesne University, 2014)

Tests used:
[1] = Inhibition of FRalpha (unknown origin) expressed in Chinese hamster RT16 cells assessed as cell growth inhibition incubated up to 96 hrs in presence of 200 nM folic acid by Celltiter-blue cell viability assay
[2] = Inhibition of FRalpha (unknown origin) expressed in Chinese hamster RT16 cells assessed as cell growth inhibition incubated up to 96 hrs by Celltiter-blue cell viability assay
[3] = Inhibition of FRbeta (unknown origin) expressed in Chinese hamster D4 cells assessed as cell growth inhibition incubated up to 96 hrs in presence of 200 nM folic acid by Celltiter-blue cell viability assay
[4] = Inhibition of FRbeta (unknown origin) expressed in Chinese hamster D4 cells assessed as cell growth inhibition incubated up to 96 hrs by Celltiter-blue cell viability assay
[5] = Inhibition of RFC (unknown origin) expressed in Chinese hamster PC43-10 cells assessed as cell growth inhibition incubated up to 96 hrs by Celltiter-blue cell viability assay
[6] = Inhibition of PCFT (unknown origin) expressed in Chinese hamster R2/PCFT4 cells assessed as cell growth inhibition incubated up to 96 hrs by Celltiter-blue cell viability assay

Compound	IC50 [1]	IC50 [2]	IC50 [3]	IC50 [4]	IC50 [5]	IC50 [6]
CCC[C@H](NC(=O)c1ccc(CCCc2cc3c(=O)[nH]c(N)nc3[nH]2)s1)C(=O)O	> 1000 nM	56 nM	> 1000 nM	> 1000 nM	> 1000 nM	> 1000 nM
Nc1nc2[nH]c(CCCc3ccc(C(=O)N[C@@H](CC(=O)O)C(=O)O)s3)cc2c(=O)[nH]1	> 1000 nM	6.6 nM	> 1000 nM	347 nM	> 1000 nM	> 1000 nM
Nc1nc2[nH]c(CCCc3ccc(C(=O)O)s3)cc2c(=O)[nH]1	> 1000 nM	661 nM	> 1000 nM	> 1000 nM	> 1000 nM	> 1000 nM
Nc1nc2[nH]c(CCCc3ccc(C(=O)NCCCC(=O)O)s3)cc2c(=O)[nH]1	> 1000 nM	27 nM	> 1000 nM	> 1000 nM	> 1000 nM	> 1000 nM
Nc1nc2[nH]c(CCCc3ccc(C(=O)N[C@@H](CCCC(=O)O)C(=O)O)s3)cc2c(=O)[nH]1	> 1000 nM	9.5 nM	> 1000 nM	3.6 nM	> 1000 nM	> 1000 nM
